Results reported in US20250057808A1, “COMPOSITION COMPRISING BETA LACTAM FOR TREATING ALCOHOL DEPENDENCE AND ALCOHOL ASSOCIATED DISEASES OR CONDITIONS” (Temple University of the Commonwealth System of Higher …, priority 2023, published 2025).
“Also recorded” adds a separate entry of the source.

Key:
mGluR5 = assay: Western blot mGluR5 expression in NAc-core and NAc-shell; assay type: in vivo, P rats; settings: MC-100093 50 mg/kg or ceftriaxone 200 mg/kg i.p. 5 days
Description: We used micro-punch procedure to dissect the subregions of the NAc such as NAc-core and NAc-shell as well as the subregions of prefrontal cortex such as infralimbic (IL) and prelimbic (PL) from the brain on day 6 after the last injection day. P rats were removed from the cage and rapidly euthanized by CO2 inhalation followed by rapid decapitation with a guillotine. Brains were isolated and immediately frozen on dry ice and stored at −80° C. The stereotaxic coordinates provided by Paxinos and colleague's rat brain stereotactic atlas was used to isolate NAc-core and NAc-shell using a cryostat apparatus (−20° C.), which then kept at −80° C. for later western blot analyses.
Western Blot assay was performed to measure changes in the expression of GLT-1, xCT, mGluR1, mGluR5, PPAR-α, PPARγ, GAPDH and β-tubulin in the NAc-core and NAc-shell as described in previous publications. A lysis buffer containing protease and phosphatase inhibitors was used to generate a homogenate of liver, Nac-core, and Nac-shell samples. The amount of protein was quantified using a detergent compatible protein assay (Bio-Rad, Hercules, CA, USA) for each sample. Samples were mixed with laemmli dye and loaded with equal amounts on polyacrylamide gels (10%), which separated the proteins using electrophoresis. After that, polyvinylidene difluoride (PVDF) membranes were used to transfer the proteins electrophoretically from the gels. Membranes were incubated in 5% free-fat milk in Tris-buffered saline with Tween-20 (TBST) for 30-60 minutes at room temperature. Membranes were then incubated with appropriate primary antibodies overnight at 4° C.: rabbit anti-GLT-1 (1:5000, Abcam, ab41621), rabbit anti-xCT (1:2000, Abcam, ab175186), rabbit anti-mGluR1 (1:1000, Abcam, ab82211), rabbit anti-mGluR5 (1:1000, Abcam, ab76316), rabbit anti-PPAR-α (1:1000, Abcam, ab24509), and rabbit anti-PPARγ (1:1000, Abcam, ab209350). Mouse anti-β-tubulin (1:1000; BioLegend) was used as a loading control antibody for the brain samples and rabbit anti-GAPDH (1:5000; cell signaling) was used as a loading control antibody for the liver samples. Membranes were washed five times on the next day with TBST followed by incubation with appropriate secondary antibody (1:5000) for 90 minutes at room temperature. Chemiluminescent reagents (Super Signal West Pico, Pierce Inc.) were used to detect the proteins using a GeneSys imaging system to develop the digitized blot images. Water-control group data were represented as 100% and all other values were expressed relative to control group to detect changes in the expression of the protein of interest in the brain and liver samples.
All statistical analyses were conducted with Graphpad Prism software, with p-values of 0.05 or less being statistically significant. […]

plasma protein = settings: cited from earlier work
fat content in the liver = assay: Liver Oil Red O staining (fat content); assay type: in vivo, P rats; settings: MC-100093 50 mg/kg or ceftriaxone 200 mg/kg i.p. 5 days, control, ethanol, ethanol-CEF groups
Description: To measure the fat content in the liver sections, we used Oil Red O (Sigma, CAS Number 1320-06-5) staining on 10 μm thick formalin-fixed liver sections and placed in slides for further staining. The slides were stained with freshly prepared Oil Red O working solution 15 minutes then rinsed with 60% isopropanol. Slides were then rinsed with distilled water and mounted in aqueous mounting media and prepared for imaging. The degree of Oil Red O staining was determined at 20× magnification using a color video camera attached to an Olympus VS120 slide scanning microscope. Olympus OlyVIA software was used to analyze the images. The lipid droplets were quantified using Image J pro (NIH). Data are presented as the mean+SEM of the Oil Red O staining for each group.
All statistical analyses were conducted with Graphpad Prism software, with p-values of 0.05 or less being statistically significant. We performed a two-way (mixed model) ANOVA followed by Bonferroni multiple comparison post-hoc test to analyze 24 h ethanol consumption, 24 h water consumption, and daily body weight. For the Western blot and oil red O staining analysis, we performed one-way ANOVA with Newman-Keuls as a post hoc multiple comparison test to measure differences between groups as a percentage (relative to control values).

C[C@@H](O)[C@H]1C(=O)N[C@@H]1[C@@H](C)C(=O)N1CCN(C)CC1 [MC-100093]
Protein expression of mGluR5 in the NAc-core (mGluR5; among all groups): non-significant difference; also recorded: no significant difference
Protein expression of mGluR5 in the NAc-shell (mGluR5; vs control or ethanol groups): no significant change in the expression of mGluR5; also recorded: significantly downregulated in ethanol group compared to control, Ethanol-MC (50 mg/kg), and Ethanol-CEF (200 mg/kg) groups; also recorded: normalizing levels of mGluR5
Binding to plasma protein (plasma protein): low binding to plasma protein
Liver fat content (Oil Red O stained fat droplets) (fat content in the liver): no significant difference in fat content between control, ethanol-MC, and ethanol-CEF groups; also recorded: significantly higher fat droplet content in ethanol group (p<0.05) compared to control, ethanol-MC or ethanol-CEF groups; also recorded: alleviated the liver steatosis
